Results as given in US20210139966A1, “ENHANCEMENT OF NUCLEIC ACID POLYMERIZATION BY MINOR GROOVE BINDING MOIETIES” (priority 2018, published 2021).
Where a name gives a salt, the structure may show the parent alone. Read-outs that look alike come from different tables or passages of the source.

What was measured:
DNA polymerase [1] = assay: Primer extension reaction with XNTPs as substrates (additive screen and MGB titration), gel electrophoresis of Xpandomer products; assay type: biochemical; details: for enhancement of XNTP polymerization in titration: FIG. 5, MGB ranging from 75 to 600 μM, highest concentration most robust enhancement; for amount of MGB demonstrating reliable enhancement of XNTP polymerization: further titration experiments, FIG. 6
Text: However, initial transcription of the sequence of the natural DNA template onto the measurable Xpandomer relies on the ability of DNA polymerase to utilize XNTPs as substrates (the generalized structure of an XNTP is discussed herein with reference to FIG. 1A and FIG. 2). […] In an effort to improve the efficiency and accuracy of XNTP polymerization into Xpandomers, a wide variety of additives was screened for the ability to enhance DNA polymerase primer extension reactions using XNTPs as substrates.
A typical primer extension reaction includes the following reagents: 2 pmol primer, 2.2 pmol 45 mer oligonucleotide template, 50 pmol of each XNTP (XATP, XCTP, XGTP, and XTTP), 50 mM Tris HCl, pH 6.79, 200 mM NaCl, 20% PEG, 5% NMS, 0.5 nmol polyphosphate 60.19, 0.3 mM MnCl2, and 0.6 μg of purified recombinant DNA polymerase protein. Reactions are run for 1 hr at 23° C. Reaction products (i.e. constrained Xpandomers) are treated to cleave the phosphoramidate bonds, thereby generating linearized Xpandomers. Reaction products are analyzed using gel electrophoresis on 4-12% acrylamide gels to resolve and visualize Xpandomer products of different lengths. For the additive screen, reaction additives were typically tested in the micro to millimolar range.
Using the primer extension reaction described in Example 1, titration experiments were performed to determine the optimal amount of MGB for enhancement of XNTP polymerization.

DNA polymerase [2] = assay: Sequencing by Expansion (SBX) of primer extension products, nanopore reads aligned to a 45 mer template; assay type: biochemical; details: FIG. 7B, no additive control not accurate past base 20
Protocol: To investigate the accuracy of enhancement of XNTP polymerization, primer extension products were sequenced using the SBX protocol. Briefly, the constrained Xpandomer products of XNTP polymerization are cleaved to generate linearized Xpandomers. This is accomplished by first quenching the extension reaction with a solution containing 100 mM EDTA, 2 mM THPTA, and 2% Tween-20. Then the sample is subjected to amine modification with a solution of 1 M NaHCO3 and 1 M succinic anhydride in DMF. Cleavage of the phosphoramidate bonds is carried out with 37% HCl and linearized Xpandomers are purified with QIAquick columns (QIAGEN, Inc.).
For sequencing, protein nanopores are prepared by inserting α-hemolysin into a DPhPE/hexadecane bilayer member in buffer B1, containing 2 M NH4Cl and 100 mM HEPES, pH 7.4. The cis well is perfused with buffer B2, containing 0.4 M NH4Cl, 0.6 M GuCl, and 100 mM HEPES, pH 7.4. The Xpandomer sample is heated to 70° C. for 2 minutes, cooled completely, then a 2 μL sample is added to the cis well. A voltage pulse of 90 mV/390 mV/10 μs is then applied and data is acquired via Labview acquisition software.
Sequence data was analyzed by histogram display of the population of sequence reads from a single SBX reaction. […]

[3] = additive screen, primer extension with XNTPs, 1 hr at 23° C., additives typically tested in the micro to millimolar range

Molecule | Extension Effect (DNA polymerase [1]; [3]) | other results
Nc1cc(C(=O)O)ccc1C(=O)O [2-Aminoterephthalic acid] |  | Extension Effect (DNA polymerase [1]): Inhibitory
Triton | No effect | 
OCC(O)CO [Glycerol] | No effect | 
CCCCCCCc1ccc(C(O)CC[N+](C)(C)CCCS(=O)(=O)[O-])cc1 (stereo not drawn) [C7BzO] | No effect | 
CCCCCCCCCCCCOS(=O)(=O)[O-].[Na+] [Sodium docecyl sulfate] | No effect | 
O=S(=O)([O-])[O-].[Ni+2] [NiSO4] | Inhibitory | 
C[N+](C)(C)CC(=O)NN.[Cl-] [Girards Reagent T] | No effect | 
CN1CCN(c2ccc3nc(-c4ccc5nc(-c6ccc(N(C)C)cc6)[nH]c5c4)[nH]c3c2)CC1 [Hoescht Stain solution 34580, reference compound] | Beneficial | effect on primer extension with XNTPs (summary of additive screen) (DNA polymerase [1]; additive screen): significantly and reproducibly enhanced
Cl.Nc1ccc2cc3ccc(N)cc3nc2c1 [3,6-Diaminoacridine Hydrochloride, reference compound] | Beneficial | effect on primer extension with XNTPs (summary of additive screen) (DNA polymerase [1]; additive screen): significantly and reproducibly enhanced
CC#N [Acetonitrile] | No effect | 
CN1CCN(c2ccc3[nH]c(-c4ccc5[nH]c(-c6ccc(O)cc6)nc5c4)nc3c2)CC1 [Hoescht Stain solution 33258, reference compound] | Beneficial | accuracy of sequence reads of SBX sequencing (DNA polymerase [2]): increased the accuracy of the sequence reads completely to the end of the 45 mer template; enhancement of XNTP polymerization in titration (DNA polymerase [1]): dose-dependent enhancement; effect on primer extension with XNTPs (summary of additive screen) (DNA polymerase [1]; additive screen): significantly and reproducibly enhanced; amount of MGB demonstrating reliable enhancement of XNTP polymerization (DNA polymerase [1]): 0.6 mM
CC(=O)NCC(=O)O.CC(=O)NCC(=O)O.N=C(N)c1ccc(N=NNc2ccc(C(=N)N)cc2)cc1 [Diminazine Aceturate, reference compound] | No effect | 
CCCCCC(=O)[O-].[Na+] [Sodium Hexanoate] | No effect | 
CC1COC(=O)O1 (stereo not drawn) [Propylene carbonate] | Inhibitory | 
O=S(=O)([O-])CCC[n+]1ccccc1 [3-(1-pyridinio)-1-propanesulfonate] | No effect | 
NC(N)=O [Urea] | Beneficial | 
C1CCOC1 [Tetrahydrofuran] | No effect | 
[Cl-].[Na+] [NaCl] |  | Extension Effect (DNA polymerase [1]): Beneficial
CC(=O)O.CCN(CC)CC [Triethylamine acetate] | Inhibitory | 
C[N+](C)(C)[O-] [TMAO] | Variable effects | 
CN1C(=O)CCC1=O [N-methyl succinimide] | Beneficial | 
CDPI3 [reference compound] | Variable effects | 
[Mg+2] [Magnesium] | Inhibitory | 

Molecule | Extension Effect (DNA polymerase [1]; [3]) | other results
CC(C)=O [Acetone] | Beneficial | 
CCCCCCCCCCCCN(C)CC(=O)O [N-Lauryl Sarcosine] | Inhibitory | 
c1c[nH]cn1 [Imidazole] | No effect | 
CN(C)C=O [Dimethylformamide] | No effect | 
N=C(N)NCCC[C@H](N)C(=O)O [Arginine] | Inhibitory | 
N[C@@H](Cc1ccc(OP(=O)(O)O)cc1)C(=O)O [O-Phospho-L-tyrosine] | Inhibitory | 
C[N+](C)(C)C.[Cl-] [TMACl] | No effect | 
CCCCCCCCCCCCC/C=C/[C@@H](O)[C@@H](N)CO [Sphingosine] | No effect | 
Nc1cc(C(=O)O)cc(C(=O)O)c1 [5-Aminoisophthalic acid] | Inhibitory | 
[Cl-].[K+] [Potassium Chloride] | No effect | 
N=C(N)c1ccc(-c2cc3ccc(C(=N)N)cc3[nH]2)cc1 [DAPI, reference compound] | No effect | effect on XNTP polymerization reaction, gel of FIG. 4 (extension product length vs no-additive lane 1, around 14 XNTPs) (DNA polymerase [1]; FIG. 4 representative gel): inhibitory effect
CCOc1ccc(-c2nc3ccc(-c4nc5ccc(N6CCN(C)CC6)cc5[nH]4)cc3[nH]2)cc1 [Hoescht Stain solution 33342, reference compound] | Beneficial | enhancement of XNTP polymerization in titration (DNA polymerase [1]): dose-dependent enhancement; effect on primer extension with XNTPs (summary of additive screen) (DNA polymerase [1]; additive screen): significantly and reproducibly enhanced; amount of MGB demonstrating reliable enhancement of XNTP polymerization (DNA polymerase [1]): 0.8 mM
C[N+](C)(C)CC(=O)O [Betaine] | Inhibitory | 
CCCCCCCCCCCCCC(=O)NCCC[N+](C)(C)CCCS(=O)(=O)[O-] [ASB-14 (amidosulfobetaine)] | No effect | 
C[N+](=O)[O-] [Nitromethane] | Inhibitory | 
CCCCCCCCCCCC[N+](C)(C)C.[Cl-] [Dodecyltrimethylammonium chloride] | Inhibitory | 
Cn1cc(NC(=O)c2cc(NC(=O)CN=C(N)N)cn2C)cc1C(=O)NCCC(=N)N [Netropsin dihydrochloride, reference compound] | Beneficial | enhancement of XNTP polymerization in titration (DNA polymerase [1]): dose-dependent enhancement; effect on primer extension with XNTPs (summary of additive screen) (DNA polymerase [1]; additive screen): significantly and reproducibly enhanced
C[S+](C)[O-] [DMSO] | Length increases | 
O=C(/C=C/C=C/c1ccc2c(c1)OCO2)N1CCCCC1 [Piperdine] | Inhibitory | 
N=C(N)c1ccc(OCCCCCOc2ccc(C(=N)N)cc2)cc1 [Pentamidine isethionate salt, reference compound] | No effect | 
NC(COP(=O)(O)O)C(=O)O (racemic) [O-phospho-DL-serine] | Inhibitory | 
NCc1ccccc1 [Benzylamine] | No effect | 
